This is an account of results in patent publication US20240368120A1 (Terns Pharmaceuticals, Inc., priority 2023, published 2024).

A value given as a limit tells only on which side of the number the result lay.

A short description of series [1]: Metabolic stability in rat hepatocytes. Type of series: in vitro ADME. The following applies: cryopreserved hepatocytes, 1 μM, 1×10^6 cells/mL, 0-240 min; for half-life at 1 μM: read-out: Rat t1/2. The protocol: (§1) Test compounds were incubated in rat and human hepatocytes and stability was assessed from the substrate […] approach. Test compounds were dissolved in dimethyl sulfoxide (DMSO) to create a 10 mM Stock, and then further diluted to create a 1000× Working Stock of 1 mM with DMSO in 96-well plates for test compounds and the positive control (midazolam). Vials containing cryopreserved hepatocytes were removed from the liquid nitrogen tank and immediately immersed in a 37° C. water bath. The vials were shaken gently until the contents had thawed and were then immediately emptied into 48 mL of pre-warmed HT Medium in a 50 mL conical tube. Cells remaining in the vial were resuspended with 1.0 mL of pre-warmed HT Medium and added to the conical tube. The tube was capped and then gently inverted several times to resuspend the hepatocytes. The cell suspension was centrifuged at 50×g at room temperature for 5 minutes and the supernatant discarded. The cell pellet was loosened by gently swirling the centrifuge tube and was re-suspended in 4 mL of warm Dulbecco's Modified Eagle medium (DMEM). Cell density was determined by a cell counter by Nexcelom, and DMEM medium was added to obtain a target density of 1×10^6 cells/mL. The assay was carried out in 96-well microtiter plates. Test Compounds were incubated at 1 μM with 1×10^6 cells/mL hepatocytes in DMEM for 0, 30, 60, 120 and 240 minutes. The incubation was carried out with gentle shaking at 37° C. under a humid atmosphere of 95% air/5% CO2. The volume of the incubation mixture was 37 μL with a final 0.1% DMSO. At each of the time points, the incubation was stopped by adding 150 μL quenching solution (100% acetonitrile, 0.1% formic acid containing bucetin as an internal standard for positive ESI mode). Subsequently, the mixtures were vortexed for 20 min and centrifuged at 4,000 RPM at 10° C. The supernatant (80 μL) was transferred to a clean 96-well plate and analyzed by LC-MS/MS. Midazolam at 1 μM with a final 0.1% DMSO was included as a positive control to verify assay performance. The percent parent remaining, intrinsic and predicted hepatic clearance and t1/2 were calculated. All samples were analyzed by LC-MS/MS using an AB Sciex API 4000 instrument, coupled to a Shimadzu LC-20AD LC Pump system. Separation was achieved using a Waters Atlantis T3 dC18 reverse phase HPLC column (20 mm×2.1 mm) at a flow rate of 0.5 mL/min. The mobile phase consisted of 0.1% formic acid in water (solvent A) and 0.1% formic acid in 100% acetonitrile (solvent B). Elution conditions are detailed below.
(§2) The ion optics of each test compound were optimized for their declustering potential (DP), […] (CE), collision-cell exit potential (CXP) and used in a selected ion monitoring experiment in the positive ion mode. The peak area ratio of each test compound to internal standard was then evaluated for stability. The extent of metabolism was calculated based on the disappearance of the test compound, compared to its initial concentration. The initial rates of clearance of the test compound were calculated using the linear regression plot of semi-log % remaining of the compound versus time. The elimination rate constant (k) of the linear regression plot was then used to determine t1/2 and the intrinsic clearance (CLint) using the following formula, where Chepatocyte (million cells/mL) is the cell density of the incubation:
(§3) The predicted hepatic clearance (CLhep) was calculated using the well stirred method with the following formula with CLint (in vivo) normalized based on liver weight: […]
(§4) The relevant physiological parameters of liver weight, blood flow, and hepatocellularity for various species are listed below: […]

Another series deals with rat hepatocytes. The experiment in a line: Metabolic stability in rat hepatocytes. Particulars: predicted hepatic clearance, well stirred method. Type of series: in vitro ADME. On the procedure:
as §1, §2, §3, §4

Series [2] in a line: Metabolic stability in human hepatocytes. Type of series: in vitro ADME. The following applies: cryopreserved hepatocytes, 1 μM, 1×10^6 cells/mL, 0-240 min; for half-life at 1 μM: read-out: Human t1/2. The protocol: as §1, §2, §3, §4
In another series the test system is human hepatocytes. The experiment in a line: Metabolic stability in human hepatocytes. The format is in vitro ADME. Particulars: predicted hepatic clearance, well stirred method. On the procedure: as §1, §2, §3, §4
Series [3] is described as follows: Rat pharmacokinetics, intravenous dosing. Type of series: in vivo, Sprague-Dawley rats. The following applies: male, Sprague-Dawley, IV bolus dosing at 3.0 mg/kg, plasma. The protocol: Intravenous dosing: Compounds were formulated at 1.0 mg/mL in a solution comprising 5% polyethylene glycol 400 and 95% (12% (w/v) sulfobutyl-β-cyclodextrin in water) (v/v). Formulated compounds were sterile filtered through a 0.22 micron filter before dosing. Compounds were administered to male, 7-11-week-old Sprague-Dawley rats by jugular vein cannula infusion over 30 minutes at a dose of 1 mg/kg. Oral dosing: Compounds were formulated at 1.0 mg/mL in a solution comprising 5% polyethylene glycol 400 and 95% (12% (w/v) sulfobutyl-β-cyclodextrin in water) (v/v). Formulated compounds were administered to male, 7-11 week old Sprague-Dawley rats by oral gavage at a dose of 10 mg/kg or 3 mg/kg.
Sample collection: Blood collections of about 0.2 mL per time point were performed from jugular vein or other suitable site of each animal, into pre-chilled commercial EDTA-K2 tubes and placed on wet ice until centrifugation. Blood samples were processed for plasma by centrifugation at approximately 4° C., 3,200 g for 10 min. Plasma was collected and transferred into pre-labeled 96 well plate or polypropylene tubes, quick frozen over dry ice and kept at −60° C. or lower until
Data analysis: Plasma concentration versus time data was plotted in graph and analyzed by non-compartmental approaches using the Phoenix WinNonlin 6.3 software program. Related PK parameters were calculated according to dosing route, e.g., CL, Vdss and C0 for intravenous administration, Cmax, Tmax or % F for extravascular administration, and T1/2, AUC(0-t), AUC(0-inf), MRT(0-t), MRT(0-inf) for all routes.

One may read the CLint scaled as the rate of metabolic loss divided by the concentration. As a reminder, the AUC is the area under the concentration-time curve, a measure of exposure. In the case of `COc1cc(C(=O)O)cc2c1nc(CN1CCC(c3cccc(OCc4ccc(C#N)cc4F)n3)CC1)n2Cc1cncs1` [Compound 1, 2-((4-(6-((4-Cyano-2-fluorobenzyl)oxy)pyridin-2-yl)piperidin-1-yl)methyl)-4-methoxy-1-(thiazol-5-ylmethyl)-1H-benzo[d]imidazole-6-carboxylic acid], in series [1], the intrinsic metabolic clearance (CLint scaled) at 1 μM worked out at 68.7 ± 3.5 mL/min/kg and the half-life at 1 μM was determined as 0.806 ± 0.041 h. The “Rat Clhep predicted” value in the series with rat hepatocytes is listed as 30.61 ± 3.29 mL/min/kg. Moreover, in series [2], the intrinsic clearance (CLint scaled) at 1 μM was 14.2 ± 0.97 mL/min/kg and the half-life at 1 μM was 2.83 ± 0.193 h. The “Human Clhep predicted” value in the series on human hepatocytes is listed as 8.42 ± 0.92 mL/min/kg. In series [3], this molecule came in with an AUC of under 500 ng·h/mL and a C0 of over 2000 ng/mL. For the same molecule, the half-life in series [3] (read-out: Rat T1/2) was under 1.5 h.
As to `COc1cc(C(=O)O)cc2c1nc(CN1CCC(c3cccc(OCc4ccc(C#N)cc4F)n3)CC1)n2C[C@@H]1CCO1` [Compound 8, (S)-2-((4-(6-((4-Cyano-2-fluorobenzyl)oxy)pyridin-2-yl)piperidin-1-yl)methyl)-4-methoxy-1-(oxetan-2-ylmethyl)-1H-benzo[d]imidazole-6-carboxylic acid], in series [1], the CLint scaled at 1 μM was determined as 27.4 ± 1.77 mL/min/kg and the half-life at 1 μM worked out at 2.02 ± 0.131 h. Further, the “Rat Clhep predicted” value with rat hepatocytes was 18.31 ± 1.71 mL/min/kg. Moreover, in series [2], the CLint scaled at 1 μM was 6.18 ± 0.7 mL/min/kg and the half-life at 1 μM is 0.0743 ± 0.0112 h. Also, the “Human Clhep predicted” value in the series with human hepatocytes was 4.76 ± 0.68 mL/min/kg.
